Experimental data: patent US8642516B2, “Chemically-defined arrays for screening cell-substrate interactions” (Wisconsin Alumni Research Foundation, priority 2012, dated 2014)

What was measured:
HUVEC [1] = experiment: HUVEC attachment to SAM spots presenting immobilized VR-BP; assay type: cell-based, human; conditions: immobilized 1% VR-BP vs scrambled peptide, highest GRGDSP densities, 1 hour
Method: (§1) Passage 2 HUVECs were expanded at low cell density (less than 70% confluence) on tissue culture polystyrene to no more than 14 population doublings. During HUVEC expansion, cells were cultured in medium 199 (m199, Mediatech, Manassas, Va.) containing 1% penicillin/streptomycin (Hyclone, Logan, Utah) and supplemented with Clonetics EGM-2 BullitKit (Lonza Walkersville, Inc., Walkersville, Md.) containing Hydrocortisone, hFGF-B, VEGF, R3-IGF-1, Ascorbic Acid, Heparin, FBS, hEGF, GA-1000 growth supplements. NIH 3T3 cells were expanded in Dulbecco's modified eagles medium (DMEM, Mediatech, Manassas, Va.) containing 1% penicillin/streptomycin and supplemented with 5% cosmic calf serum (Hyclone, Logan, Utah). Before seeding on SAM arrays, HUVECs in cell culture flasks were starved for 24 hours in medium containing 2% FBS and then removed from the plate using a 0.05% trypsin solution and resuspended in m199 with 2% FBS. Cell suspension was seeded onto SAM arrays in sterile polystyrene Petri dishes and incubated in a humid environment at 37° C. and 5% CO2. After allowing cells to attach for ˜1 hr, arrays were dipped in warm m199 with 2% FBS to remove loosely attached cells and then transferred to a rectangular multidish (Thermo Scientific/Nunc, Rochester, N.Y.) containing warm media with 2% FBS and imaged ˜2 hours later serving as “0 hr”. […]

HUVEC [2] = experiment: HUVEC survival and proliferation on SAM arrays presenting immobilized VR-BP with VEGF / SU5416; assay type: cell-based, human
Method: as §1

NIH 3T3 fibroblasts = experiment: NIH 3T3 attachment to SAM spots presenting immobilized VR-BP; assay type: cell-based; conditions: immobilized 1% VR-BP vs scrambled peptide, 1 hour
Method: as §1

HUVEC [3] = experiment: Endothelial tubulogenesis on SAM spots with matrigel overlay; assay type: cell-based, human
Method: Specifically, SAM arrays seeded overnight with 50,000 HUVECs/cm^2 were rinsed with warm media and then flipped over onto cold matrigel (Growth factor reduced matrigel, BD Biosciences, Bedford, Mass.) in a rectangular multidish well containing varied concentrations of soluble recombinant VEGF. Matrigel was allowed to gel for 5 minutes, and then the array and matrigel layer were covered with warm m199 with 2% FBS. Arrays were then placed in a TIZ Tokai Hit incubated, humidified stage at 37° C. and 5% CO2 and each array spot was imaged using phase contrast microscopy every 15 minutes for 48 hours. Image analysis was performed using NIS Elements software. The total cell area and length of individual objects were measured in each array spot at 24 hours after seeding. To measure mean length of capillary-like structures, each image was contrasted and thresholded using a standard method to isolate elongated objects for automated length measurements. All objects with a length less than 20 μm were excluded from length measurements. To measure total area occupied by cells, the images were contrasted and thresholded to isolate all cell bodies from the background for automated area measurements. Objects with a length less than 10 μm were excluded from area measurements. Tubulogenesis in each spot was quantified by normalizing the mean length of objects to total cell area in each array spot. SAM array spots were imaged using a Nikon Eclipse Ti inverted microscope with a 10×PhL objective, equipped with Nikon's Perfect Focus System. 10× images were stitched using Nikon NIS Elements software to capture entire array spots and cell counting was performed using the cell counting application in NIS Elements. Statistical analysis of all data sets was performed using a two-tailed student's t-test, where p<0.05 is used to denote statistical significance.

HUVEC [4] = experiment: HUVEC proliferation (Click-it EdU) in response to soluble morphogens on SAM arrays; assay type: cell-based, human; conditions: soluble, 10 ng/ml, 24 hours, m199 with 2% FBS, highest ligand density spots
Method: Specifically, SAM array spots presenting mixed ligands were prepared as described above. SAM arrays presenting varied ligand densities of covalently immobilized VEGF receptor-binding peptide ([sequence], here referred to as “VR-BP”; SEQ ID NO:17) and varied ligand densities of the fibronectin-derived cell adhesion peptide (GRGDSP, SEQ ID NO:18) were used to probe for changes in HUVEC attachment, proliferation and tubulogenesis. Control over individual ligand density was achieved by mixing scrambled VR-BP and mutant GRGESP (SEQ ID NO:19) with functional VR-BP or GRGDSP (SEQ ID NO:18) peptides, respectively. Therefore, in a typical SAM array, SAMs were locally formed within spots using an alkanethiolate mixture of 94% HS—C11-EG3-OH and 6% HS—C11-EG6-COOH to create substrates with a total of 6% carboxylate groups for peptide conjugation. Next, to create a spot presenting 5% GRGDSP (SEQ ID NO:18) and 1% VR-BP, a 300 μM peptide solution with 250 μM GRGDSP (SEQ ID NO:18) and 50 μM VR-BP was used during peptide conjugation. Likewise, to create a spot presenting 2.5% GRGDSP (SEQ ID NO:18) and 0.1% VR-BP, a 300 μM peptide solution with 125 μM GRGDSP (SEQ ID NO:18), 125 μM GRGESP (SEQ ID NO:19), 5 μM VR-BP and 45 μM scrambled peptide was used during peptide conjugation. In this manner, the amount of active ligand could be varied between spots while holding the total ligand content constant.
Passage 2 HUVECs were expanded at low cell density (less than 70% confluence) on tissue culture polystyrene to no more than 14 population doublings. During HUVEC expansion, cells were cultured in medium 199 (m199, Mediatech, Manassas, Va.) containing 1% penicillin/streptomycin (Hyclone, Logan, Utah) and supplemented with Clonetics EGM-2 BullitKit (Lonza Walkersville, Inc., Walkersville, Md.) containing Hydrocortisone, hFGF-B, VEGF, R3-IGF-1, Ascorbic Acid, Heparin, FBS, hEGF, GA-1000 growth supplements. […]

HUVEC [5] = experiment: HUVEC attachment to SAM spots presenting mutant ligand (Example 8); assay type: cell-based, human
Method: Specifically, SAM array spots presenting mixed ligands were prepared as described above. SAM arrays presenting varied ligand densities of covalently immobilized VEGF receptor-binding peptide ([…], here referred to as “VR-BP”; SEQ ID NO:17) and varied ligand densities of the fibronectin-derived cell adhesion peptide (GRGDSP, SEQ ID NO:18) were used to probe for changes in HUVEC attachment, proliferation and tubulogenesis. Control over individual ligand density was achieved by mixing scrambled VR-BP and mutant GRGESP (SEQ ID NO:19) with functional VR-BP or GRGDSP (SEQ ID NO:18) peptides, respectively. Therefore, in a typical SAM array, SAMs were locally formed within spots using an alkanethiolate mixture of 94% HS—C11-EG3-OH and 6% HS—C11-EG6-COOH to create substrates with a total of 6% carboxylate groups for peptide conjugation. Next, to create a spot presenting 5% GRGDSP (SEQ ID NO:18) and 1% VR-BP, a 300 μM peptide solution with 250 μM GRGDSP (SEQ ID NO:18) and 50 μM VR-BP was used during peptide conjugation. […] As mentioned previously, ligand concentrations were measured using UV/Vis since all peptides either contained residues that absorbed strongly at 280 nm, or were engineered to contain tryptophan residues in the poly-glycine tail. […]

hMSC = hMSC surface coverage over time on SAM spots presenting GRGDSP with BR-BP and HPG-BP; assay type: cell-based, human; conditions: low GRGDSP density SAM spots, cultured 20 days
Description: In this SAM array approach, each spot was designed to contain the same total molar density (mol/cm^2) of peptide from spot to spot. Therefore, control over individual peptide density was achieved by mixing scrambled BR-BP and HPG-BP and mutant GRGESP (SEQ ID NO:19) peptides with functional BR-BP, HPG-BP or GRGDSP (SEQ ID NO:18) peptides, respectively. Therefore, in a typical SAM array, SAMs were locally formed within spots using an alkanethiolate mixture of 95% HS—C11-EG3-OH and 5% HS—C11-EG6-COOH to create substrates with a total of 5% carboxylate groups for peptide conjugation. Here, “X %” refers to the mole percent of alkanethiolate present during SAM formation and subsequently the approximate amount of an alkanethiolate present on the surface after SAM formation. To regulate the density of active peptide present in each spot, mutant and scramble versions of peptides were included during peptide conjugation. […] As mentioned previously, peptide concentrations were easily measured using UV/Vis since all peptides either contained residues that absorbed strongly at 280 nm, or were engineered to contain tryptophan residues in the poly-glycine tail. […]

**Q.** With KLTWQELYQLKYKGI [VR-BP] as the substance, how does the HUVEC attachment (HUVEC [1]) read?
**A.** The HUVEC attachment was “significantly decreased”.

**Q.** What about the HUVEC proliferation (HUVEC [2]; immobilized 1% VR-BP, in presence of soluble VEGF, high and low ligand densities) of the same substance?
**A.** Its HUVEC proliferation is “inhibited proliferation”.

**Q.** What about the HUVEC survival (HUVEC [2]; immobilized VR-BP at 1% density, without soluble VEGF or in presence of SU5416) of the same substance?
**A.** The HUVEC survival was “decreased HUVEC survival”.

**Q.** And the “NIH 3T3 attachment” value (NIH 3T3 fibroblasts)?
**A.** Its value is “no effect”.

**Q.** And the “tubulogenesis (average tubule length per total cell area)” value (HUVEC [3]; 1% VR-BP vs 0% VR-BP, presence and absence of soluble VEGF)?
**A.** The value was “increased tubulogenesis”.

**Q.** What about the tubulogenesis (HUVEC [3]; 1% VR-BP vs lower VR-BP surfaces, absence of soluble VEGF) of the same substance?
**A.** Its tubulogenesis is “significantly increased”.

**Q.** What about the “HUVEC proliferation (EdU incorporation) compared to cells without stimulation” value (HUVEC [4]) of the same substance?
**A.** Its value is “significant increases in proliferation”.

**Q.** Which HUVEC attachment (HUVEC [5]) does the source give for “GRGESP [mutant peptide mixed with GRGDSP to control ligand density]” here?
**A.** The HUVEC attachment was “did not promote HUVEC attachment”.

**Q.** Which results are given for VEGF?
**A.** tubulogenesis (average tubule length per total cell area) (HUVEC [3]; soluble VEGF protein): decreased tubulogenesis; HUVEC proliferation (EdU incorporation) compared to cells without stimulation (HUVEC [4]): increased HUVEC proliferation

**Q.** For KIPKASSVPTEL [BR-BP], which hMSC surface coverage (hMSC) is on record?
**A.** Its hMSC surface coverage is “maintained hMSC surface coverage”.
